# Measured values reported in patent US20220202792A1, “METHODS AND COMPOSITIONS FOR TREATING CHRONIC INFLAMMATORY INJURY, METAPLASIA, DYSPLASIA AND CANCERS OF EPITHELIAL TISSUES” (University of Houston System, priority 2019, published 2022).
# Assays:
# [1] = system: Barrett's, dysplasia or EAC stem cells; test: Co-culture of esophageal stem cells with Barrett's, dysplasia or EAC stem cells; type: cell-based, human; conditions: together with 1 μM Ponatinib
# Procedure: FIG. 6. Patient-matched BE, dysplasia and cancer stem cells (Krt7+, Green) were mixed with Krt5+ (red) ESO cells and co-cultured for five days and then treated with seven selected drugs together with 1 μM Ponatinib.
# BE has been known to be the precursor of the dysplastic and cancerous lesions of EAC. […] Moreover, PCA analysis of Barrett's stem cells derived from 12 patients together with dysplasia, cancer and Esophageal squamous stem cells confirmed that the stem cells of dysplasia and cancer shared very similar gene expression with Barrett's stem cells (FIGS. 4A & B). […] The effects of the eight drug hits in combination with Ponatinib were tested in the cell culture of co-seeding esophageal stem cells and Barrett's, dysplasia or EAC stem cells. […] Given these three entities always co-exist in patients with EAC, our strategies of eradicating all of them could help to eliminate the chance of recurrence of EAC patients drastically.
# [2] = system: aggressive breast cancer model; conditions: in vivo; cited from earlier work
# [3] = system: BE, dysplasia and cancer stem cells; test: 3D (ALI) culture of patient-matched BE, dysplasia and cancer stem cells; type: cell-based, human; conditions: combined with Ponatinib
# Excerpt: FIG. 5B. Left, Scanned images of top view of BE, dysplasia and cancer stem cells (green) generated ALI structures in the presence of absence of drug combinations.
# [4] = system: Barrett's stem cells and esophageal squamous stem cells xenograft; test: Mouse xenograft of co-injected esophageal squamous and GFP labeled Barrett's stem cells; type: in vivo, mice
# Excerpt: The effect of these chemicals on BE in a xenograft model was further examined. The esophageal squamous stem cells and GFP labeled Barrett's stem cells were mixed and co-injected into the immunodeficient mice. […] Two weeks following the treatment, the xenografts were collected and examined through histology analysis and clonogenic analysis.
compound,measurement,setting,value
Clc1ccc(N/N=C(\c2ccccc2)c2ccccn2)nc1 [JIB04],"growth of BE, dysplasia and cancer stem cells in co-culture with ESO cells",[1],most effective
same,tumor burden and survival of mice,[2],reduces tumor burden and prolongs survival
same,"eradication of BE, dysplasia and cancer stem cells in 3D (ALI) culture",[3],eradicate
same,BE stem cells in treated structures (histological analysis),"[4]; NSG mice, with Ponatinib",not detected
same,Krt5+ ESO structures in treated samples,"[4]; NSG mice, with Ponatinib",visibly more robust
same,clonogenic Barrett's stem cells from xenografts,"[4]; combination with Ponatinib, clonogenic analysis",lack of clonogenic Barrett's stem cells
same,Barrett's structures in xenografts (histology),"[4]; combination with Ponatinib, intraperitoneally, two weeks following the treatment",total loss
